# What was measured:
# [1] = Ratio of drug concentration at steady state in human at 0.075 to 0.26 mg/kg, po after 24 hrs to IC50 for human MRP2 overexpressed in Sf9 insect cells; type: ADME, organism-based; settings: in vivo
# Bile salt export pump = Bile salt export pump (Homo sapiens, UniProt O95342); assay: Inhibition of human BSEP overexpressed in Sf9 cell membrane vesicles assessed as uptake of [3H]-taurocholate in presence of ATP measured after 15 to 20 mins by membrane vesicle transport assay; type: ADME, cell-based
# [2] = target: T1, ATP-binding cassette sub-family C member 4 (Homo sapiens, UniProt O15439); assay: Inhibition of human MRP4 overexpressed in Sf9 cell membrane vesicles assessed as uptake of [3H]-estradiol-17beta-D-glucuronide in presence of ATP and GSH measured after 20 mins by membrane vesicle transport assay; type: ADME, cell-based
# T1 sequence (O15439 whole entry): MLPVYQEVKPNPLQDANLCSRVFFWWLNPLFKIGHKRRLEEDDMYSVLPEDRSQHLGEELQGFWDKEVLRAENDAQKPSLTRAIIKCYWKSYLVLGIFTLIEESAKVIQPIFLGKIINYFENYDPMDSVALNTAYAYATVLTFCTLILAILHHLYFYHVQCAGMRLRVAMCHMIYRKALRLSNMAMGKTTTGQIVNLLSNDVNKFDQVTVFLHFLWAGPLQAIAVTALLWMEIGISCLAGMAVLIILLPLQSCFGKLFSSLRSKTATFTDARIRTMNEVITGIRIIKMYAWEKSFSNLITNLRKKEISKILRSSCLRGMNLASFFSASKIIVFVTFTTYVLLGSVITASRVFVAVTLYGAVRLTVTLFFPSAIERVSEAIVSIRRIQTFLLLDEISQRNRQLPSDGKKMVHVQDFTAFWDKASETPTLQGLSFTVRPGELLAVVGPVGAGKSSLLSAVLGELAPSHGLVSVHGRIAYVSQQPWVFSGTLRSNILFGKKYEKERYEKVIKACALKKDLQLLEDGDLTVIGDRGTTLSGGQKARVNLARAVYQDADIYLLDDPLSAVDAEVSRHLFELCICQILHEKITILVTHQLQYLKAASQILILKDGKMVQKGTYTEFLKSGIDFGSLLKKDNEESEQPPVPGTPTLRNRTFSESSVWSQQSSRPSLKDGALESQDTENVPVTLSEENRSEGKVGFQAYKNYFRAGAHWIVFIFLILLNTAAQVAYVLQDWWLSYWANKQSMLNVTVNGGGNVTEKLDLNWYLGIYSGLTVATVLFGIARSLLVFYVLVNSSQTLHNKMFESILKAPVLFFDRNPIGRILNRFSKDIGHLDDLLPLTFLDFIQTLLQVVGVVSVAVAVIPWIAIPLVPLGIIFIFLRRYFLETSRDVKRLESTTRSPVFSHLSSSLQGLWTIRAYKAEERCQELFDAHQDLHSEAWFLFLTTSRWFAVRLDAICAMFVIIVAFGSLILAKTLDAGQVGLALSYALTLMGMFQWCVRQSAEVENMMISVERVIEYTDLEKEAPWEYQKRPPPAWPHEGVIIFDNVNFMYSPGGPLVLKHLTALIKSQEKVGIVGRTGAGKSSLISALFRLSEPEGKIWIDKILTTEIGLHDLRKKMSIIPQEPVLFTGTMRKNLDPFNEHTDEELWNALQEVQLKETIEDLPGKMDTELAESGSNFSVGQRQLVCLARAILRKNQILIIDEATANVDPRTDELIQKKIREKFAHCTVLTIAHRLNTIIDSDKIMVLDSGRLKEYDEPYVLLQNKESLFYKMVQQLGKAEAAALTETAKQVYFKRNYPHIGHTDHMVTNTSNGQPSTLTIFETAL
# Homo sapiens = assay: Drug concentration at steady state in human at 0.075 to 0.26 mg/kg, po after 24 hrs; type: ADME, organism-based; settings: in vivo
# [3] = target: ATP-binding cassette sub-family C member 2 (Homo sapiens, UniProt Q92887); assay: Inhibition of human MRP2 overexpressed in Sf9 cell membrane vesicles assessed as uptake of [3H]-estradiol-17beta-D-glucuronide in presence of ATP and GSH measured after 20 mins by membrane vesicle transport assay
# [4] = target: ATP-binding cassette sub-family C member 3 (Homo sapiens, UniProt O15438); assay: Inhibition of human MRP3 overexpressed in Sf9 insect cell membrane vesicles assessed as uptake of [3H]-estradiol-17beta-D-glucuronide in presence of ATP and GSH measured after 10 mins by membrane vesicle transport assay; type: ADME, cell-based
# [5] = AUC in human at 0.075 to 0.26 mg/kg, po after 24 hrs; type: ADME, organism-based; settings: in vivo
# [6] = Ratio of drug concentration at steady state in human at 0.075 to 0.26 mg/kg, po after 24 hrs to IC50 for human BSEP overexpressed in Sf9 insect cells; type: ADME, organism-based; settings: in vivo
# [7] = AUC in human at 30 to 60 mg, po QD after 24 hrs; type: ADME, organism-based; settings: in vivo
# [8] = Ratio of drug concentration at steady state in human at 0.5 to 4 mg, po BID/TID/QID after 6 hrs to IC50 for human MRP4 overexpressed in Sf9 insect cells; type: ADME, organism-based; settings: in vivo
# [9] = Ratio of drug concentration at steady state in human at 0.5 to 4 mg, po BID/TID/QID after 6 hrs to IC50 for human MRP2 overexpressed in Sf9 insect cells; type: ADME, organism-based; settings: in vivo
# [10] = Ratio of drug concentration at steady state in human at 0.5 to 4 mg, po BID/TID/QID after 6 hrs to IC50 for human BSEP overexpressed in Sf9 insect cells; type: ADME, organism-based; settings: in vivo
# [11] = Ratio of drug concentration at steady state in human at 0.5 to 4 mg, po BID/TID/QID after 6 hrs to IC50 for human MRP3 overexpressed in Sf9 insect cells; type: ADME, organism-based; settings: in vivo
# [12] = Drug concentration at steady state in human at 0.5 to 4 mg, po BID/TID/QID after 6 hrs; type: ADME, organism-based; settings: in vivo, read-out: Css
# [13] = AUC in human at 0.5 to 4 mg, po BID/TID/QID after 6 hrs; type: ADME, organism-based; settings: in vivo
# [14] = Drug concentration at steady state in human at 0.35 mg, po QD after 24 hrs; type: ADME, organism-based; settings: in vivo, read-out: Css
# [15] = Ratio of drug concentration at steady state in human at 0.35 mg, po QD after 24 hrs to IC50 for human BSEP overexpressed in Sf9 insect cells; type: ADME, organism-based; settings: in vivo
# [16] = AUC in human at 0.35 mg, po QD after 24 hrs; type: ADME, organism-based; parameters: time < 24 hr, dose 0.35 mg, route oral; settings: in vivo
# [17] = Ratio of drug concentration at steady state in human at 400 mg, po BID after 12 hrs to IC50 for human BSEP overexpressed in Sf9 insect cells; type: ADME, organism-based; settings: in vivo
# [18] = AUC in human at 400 mg, po BID after 12 hrs; type: ADME, organism-based; parameters: time < 12 hr, dose 400 mg, route oral; settings: in vivo
# [19] = Drug concentration at steady state in human at 400 mg, po BID after 12 hrs; type: ADME, organism-based; settings: in vivo, read-out: Css
# Sequence of Bile salt export pump (O95342 whole entry): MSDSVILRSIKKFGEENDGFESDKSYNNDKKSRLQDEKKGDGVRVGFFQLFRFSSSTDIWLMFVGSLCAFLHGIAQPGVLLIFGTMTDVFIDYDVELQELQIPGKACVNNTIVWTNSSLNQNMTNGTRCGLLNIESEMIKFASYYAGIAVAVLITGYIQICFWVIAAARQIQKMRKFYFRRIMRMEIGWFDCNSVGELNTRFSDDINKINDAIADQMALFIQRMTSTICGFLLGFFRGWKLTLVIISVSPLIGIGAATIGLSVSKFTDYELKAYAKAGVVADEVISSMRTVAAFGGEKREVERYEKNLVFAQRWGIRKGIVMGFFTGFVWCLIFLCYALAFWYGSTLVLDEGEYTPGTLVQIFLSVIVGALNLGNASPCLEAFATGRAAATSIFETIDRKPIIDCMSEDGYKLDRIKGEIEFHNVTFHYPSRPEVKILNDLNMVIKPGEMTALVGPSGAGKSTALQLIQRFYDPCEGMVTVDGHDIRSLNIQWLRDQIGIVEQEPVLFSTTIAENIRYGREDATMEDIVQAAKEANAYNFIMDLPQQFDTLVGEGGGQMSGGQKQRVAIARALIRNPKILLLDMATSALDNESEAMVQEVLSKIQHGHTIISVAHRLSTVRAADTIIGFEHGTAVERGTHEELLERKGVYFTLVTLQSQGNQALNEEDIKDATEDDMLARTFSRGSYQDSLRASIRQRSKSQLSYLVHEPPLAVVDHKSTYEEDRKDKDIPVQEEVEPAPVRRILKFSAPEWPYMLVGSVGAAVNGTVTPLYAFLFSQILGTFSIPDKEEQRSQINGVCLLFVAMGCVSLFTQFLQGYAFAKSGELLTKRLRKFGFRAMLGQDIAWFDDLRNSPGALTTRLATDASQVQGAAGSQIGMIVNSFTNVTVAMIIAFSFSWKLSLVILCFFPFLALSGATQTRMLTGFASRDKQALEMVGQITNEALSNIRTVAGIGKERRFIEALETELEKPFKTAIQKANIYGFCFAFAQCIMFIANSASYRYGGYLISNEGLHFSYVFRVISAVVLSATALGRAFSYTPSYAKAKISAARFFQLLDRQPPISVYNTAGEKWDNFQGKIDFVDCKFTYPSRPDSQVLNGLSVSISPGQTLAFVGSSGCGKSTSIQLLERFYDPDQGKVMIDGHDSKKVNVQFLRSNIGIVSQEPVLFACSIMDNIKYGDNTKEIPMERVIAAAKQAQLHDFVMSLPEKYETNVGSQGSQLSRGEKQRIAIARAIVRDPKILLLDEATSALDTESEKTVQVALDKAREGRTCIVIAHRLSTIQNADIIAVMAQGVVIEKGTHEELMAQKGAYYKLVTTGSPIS
# Sequence of ATP-binding cassette sub-family C member 2 (Q92887 whole entry): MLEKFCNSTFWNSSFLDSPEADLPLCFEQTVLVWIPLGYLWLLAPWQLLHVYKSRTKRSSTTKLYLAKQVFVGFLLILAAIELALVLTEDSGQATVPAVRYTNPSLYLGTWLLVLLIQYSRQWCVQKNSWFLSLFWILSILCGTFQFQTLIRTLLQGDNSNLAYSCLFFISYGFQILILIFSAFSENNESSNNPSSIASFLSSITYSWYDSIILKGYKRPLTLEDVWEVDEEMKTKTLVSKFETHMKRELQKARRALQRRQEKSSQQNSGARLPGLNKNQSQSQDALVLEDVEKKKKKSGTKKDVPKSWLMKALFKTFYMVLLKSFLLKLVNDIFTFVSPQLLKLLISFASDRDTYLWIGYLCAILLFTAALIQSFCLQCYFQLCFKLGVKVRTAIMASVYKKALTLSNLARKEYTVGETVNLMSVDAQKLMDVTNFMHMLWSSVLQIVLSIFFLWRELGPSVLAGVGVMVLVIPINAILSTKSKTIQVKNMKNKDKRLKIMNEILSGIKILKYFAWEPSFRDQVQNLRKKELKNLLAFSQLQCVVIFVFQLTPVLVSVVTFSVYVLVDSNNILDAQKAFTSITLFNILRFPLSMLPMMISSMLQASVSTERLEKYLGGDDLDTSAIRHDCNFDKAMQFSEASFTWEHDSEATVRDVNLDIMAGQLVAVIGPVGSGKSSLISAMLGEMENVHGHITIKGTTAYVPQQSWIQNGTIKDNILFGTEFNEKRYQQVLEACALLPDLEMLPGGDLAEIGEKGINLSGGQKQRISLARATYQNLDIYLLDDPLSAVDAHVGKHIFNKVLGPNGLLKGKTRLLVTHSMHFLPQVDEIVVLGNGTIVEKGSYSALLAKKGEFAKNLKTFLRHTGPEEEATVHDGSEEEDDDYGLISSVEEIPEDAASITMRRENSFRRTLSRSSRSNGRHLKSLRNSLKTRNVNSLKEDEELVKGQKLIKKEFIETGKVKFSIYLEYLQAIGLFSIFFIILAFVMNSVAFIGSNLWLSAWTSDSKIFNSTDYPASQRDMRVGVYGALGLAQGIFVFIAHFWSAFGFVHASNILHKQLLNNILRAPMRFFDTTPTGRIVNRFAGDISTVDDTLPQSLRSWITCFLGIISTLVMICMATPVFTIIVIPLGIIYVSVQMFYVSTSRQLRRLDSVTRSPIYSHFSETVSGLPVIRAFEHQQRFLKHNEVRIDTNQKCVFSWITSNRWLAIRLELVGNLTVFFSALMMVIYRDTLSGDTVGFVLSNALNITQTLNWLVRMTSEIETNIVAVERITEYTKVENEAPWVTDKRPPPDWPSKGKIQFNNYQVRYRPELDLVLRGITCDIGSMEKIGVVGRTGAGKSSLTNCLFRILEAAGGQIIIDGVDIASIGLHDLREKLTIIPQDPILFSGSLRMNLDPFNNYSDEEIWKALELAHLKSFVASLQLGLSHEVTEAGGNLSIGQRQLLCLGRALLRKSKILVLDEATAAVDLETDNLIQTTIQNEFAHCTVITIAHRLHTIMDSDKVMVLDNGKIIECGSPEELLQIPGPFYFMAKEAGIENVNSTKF
# Sequence of ATP-binding cassette sub-family C member 3 (O15438 whole entry): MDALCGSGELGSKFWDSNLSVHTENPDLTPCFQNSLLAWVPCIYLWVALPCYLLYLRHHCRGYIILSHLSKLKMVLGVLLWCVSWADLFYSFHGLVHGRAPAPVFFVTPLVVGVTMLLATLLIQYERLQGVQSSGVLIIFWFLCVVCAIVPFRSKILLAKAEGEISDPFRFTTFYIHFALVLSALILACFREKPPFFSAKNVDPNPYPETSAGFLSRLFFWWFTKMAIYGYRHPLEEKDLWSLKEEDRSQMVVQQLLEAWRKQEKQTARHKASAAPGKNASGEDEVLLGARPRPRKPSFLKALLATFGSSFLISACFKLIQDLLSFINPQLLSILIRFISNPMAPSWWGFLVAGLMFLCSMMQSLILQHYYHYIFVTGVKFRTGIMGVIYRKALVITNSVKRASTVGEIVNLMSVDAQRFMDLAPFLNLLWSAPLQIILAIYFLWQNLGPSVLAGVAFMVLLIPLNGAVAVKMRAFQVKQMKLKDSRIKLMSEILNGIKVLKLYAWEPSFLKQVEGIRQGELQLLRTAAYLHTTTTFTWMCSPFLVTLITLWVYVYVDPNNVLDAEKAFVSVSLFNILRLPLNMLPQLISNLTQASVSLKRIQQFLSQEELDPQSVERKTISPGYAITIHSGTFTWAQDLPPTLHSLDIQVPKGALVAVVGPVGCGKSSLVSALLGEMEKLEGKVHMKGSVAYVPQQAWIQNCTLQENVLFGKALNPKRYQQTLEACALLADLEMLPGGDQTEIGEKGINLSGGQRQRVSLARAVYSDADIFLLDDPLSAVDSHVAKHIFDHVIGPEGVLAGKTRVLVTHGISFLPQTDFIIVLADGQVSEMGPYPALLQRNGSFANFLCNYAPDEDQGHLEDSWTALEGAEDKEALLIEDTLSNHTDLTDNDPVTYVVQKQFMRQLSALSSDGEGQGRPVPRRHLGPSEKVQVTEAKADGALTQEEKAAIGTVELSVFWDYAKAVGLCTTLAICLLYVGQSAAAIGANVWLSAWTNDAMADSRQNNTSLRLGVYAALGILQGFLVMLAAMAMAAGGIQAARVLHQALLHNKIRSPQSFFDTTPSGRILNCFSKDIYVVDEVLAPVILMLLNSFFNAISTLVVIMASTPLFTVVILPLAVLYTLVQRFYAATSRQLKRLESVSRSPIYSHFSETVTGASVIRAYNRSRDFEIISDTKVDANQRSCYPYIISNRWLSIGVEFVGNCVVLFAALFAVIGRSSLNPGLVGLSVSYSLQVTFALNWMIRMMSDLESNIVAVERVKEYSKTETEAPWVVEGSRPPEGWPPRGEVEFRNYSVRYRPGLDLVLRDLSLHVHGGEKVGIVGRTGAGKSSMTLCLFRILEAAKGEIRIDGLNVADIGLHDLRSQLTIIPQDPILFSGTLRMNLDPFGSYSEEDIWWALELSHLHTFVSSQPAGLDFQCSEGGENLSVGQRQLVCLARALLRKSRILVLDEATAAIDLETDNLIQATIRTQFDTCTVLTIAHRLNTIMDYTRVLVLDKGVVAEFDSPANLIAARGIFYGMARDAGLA
IC50 [2],IC50 [3],IC50 [4],SMILES,IC50 (Bile salt export pump),other results
> 133 µM,40.3 µM,> 133 µM,C=CC[C@@H]1/C=C(\C)C[C@H](C)C[C@H](OC)[C@H]2O[C@@](O)(C(=O)C(=O)N3CCCC[C@H]3C(=O)O[C@H](/C(C)=C/[C@@H]3CC[C@@H](O)[C@H](OC)C3)[C@H](C)[C@@H](O)CC1=O)[C@H](C)C[C@@H]2OC [TACROLIMUS ANHYDROUS],7.18 µM,Ratio [1]: 0; Css (Homo sapiens): 11 nM; AUC at 24 h [5]: 0.252 µM·h; Ratio [6]: 0.001
53.9 µM,72.3 µM,16.7 µM,CCOc1cc(CC(=O)N[C@@H](CC(C)C)c2ccccc2N2CCCCC2)ccc1C(=O)O [REPAGLINIDE],22 µM,Ratio [8]: 0; Ratio [9]: 0; Ratio [10]: 0.00075; Ratio [11]: 0.001; concentration at 6 h [12]: 16 nM; AUC at 6 h [13]: 0.099 µM·h
> 133 µM,> 133 µM,> 133 µM,C#C[C@@]1(OC(C)=O)CC[C@H]2[C@@H]3CCC4=CC(=O)CC[C@@H]4[C@H]3CC[C@@]21C,36 µM,concentration at 24 h [14]: 21 nM; Ratio [15]: 0.00057; AUC at 24 h [16]: 0.494 µM·h
> 133 µM,> 133 µM,> 133 µM,CCCCc1oc2ccc(NS(C)(=O)=O)cc2c1C(=O)c1ccc(OCCCN(CCCC)CCCC)cc1.Cl [DRONEDARONE HYDROCHLORIDE],73.9 µM,Ratio [17]: 0.002; AUC at 12 h [18]: 1.6 µM·h; concentration at 12 h [19]: 133 nM

SMILES,IC50 [2],IC50 [3],IC50 [4],IC50 (Bile salt export pump),other results
COC(=O)C1=C(C)NC(C)=C(C(=O)OC)C1c1ccccc1[N+](=O)[O-] [NIFEDIPINE],16.6 µM,> 133 µM,> 133 µM,,AUC at 24 h [7]: 3.48 µM·h

# Source: ChEMBL document CHEMBL4028801, “A multifactorial approach to hepatobiliary transporter assessment enables improved therapeutic compound development” (Toxicol Sci, 2013)
